The record followed here is the NIST ThermoML archive (doi:10.1016/j.tca.2016.08.003).

Numbers after ± are expanded uncertainties.

For series [1] the following is noted: Crystal; DTA.
The nature of series [2]: Molar enthalpy of transition or fusion. The settings on record: Crystal; DSC.

In the case of `O=[N+]([O-])[O-].[K+]` [potassium nitrate], in series [1], the Normal melting temperature was 333.80 ± 1.1 °C. Also, the “Molar enthalpy of transition or fusion” value in series [2] is 2.49 ± 0.0717 kcal/mol.

As for `O=[N+]([O-])[O-].[Rb+]` [rubidium nitrate], the Normal melting temperature in series [1] worked out at 309.50 ± 2 °C. Besides, the “Molar enthalpy of transition or fusion” value in series [2] was found to be 1.17 ± 0.0741 kcal/mol.

In the case of `O=[N+]([O-])[O-].[Na+]` [sodium nitrate], in series [1], the Normal melting temperature was 305.90 ± 0.6 °C. In series [2], the “Molar enthalpy of transition or fusion” value was found to be 3.7 ± 0.0813 kcal/mol.
